For series [1], the system named is ovariectomized rats. Kind of series: Uterine weight in ovariectomized rats, percutaneous administration twice daily for 7 days. The conditions noted are these: for effect on uterine weight: percutaneous; for maximal reversal of the inhibitory effect of ovariectomy on uterine weight: 100 mg percutaneous twice daily, 7 days. Format: in vivo, rat. On the procedure: (§1) Intact animals are used as additional controls. The compounds were dissolved in 50% ethanol-50% propylene glycol and were administered in 0.1 ml on the dorsal skin area (2 cm×2 cm).
(§2) Male and female Sprague-Dawley rats [Crl: CD (SD)Br] weighing 225-250 g and 175-200 g, respectively, were obtained from Charles River Canada Inc. (St-Constant, Québec) and housed 2 per cage under a regimen of 14 h of light/da, (lights on at 07:15 h). Animals received Purina rat chow and water ad libitum. The animal studies were conducted to the “Guideline for Care and use of Experimental Animals”.
(§3) The animals were randomly divided into the indicated groups (8 and 10 rats per group for subcutaneous and topical administration, respectively). The animals of the appropriate groups were bilaterally ovariectomized (OVX) or orchiectomized (ORCH) under ether anesthesia while other rats were used as intact controls.
(§4) Seven days after starting treatment or approximately 12 h after last administration of the steroid, the animals were killed by decapitation. Blood samples were collected individually and serum was frozen at −20° C. until assayed. Uteri, ovaries, ventral prostates, dorsal prostates and seminal vesicles were immediately removed, freed from connective and adipose tissue, weighed, frozen in liquid nitrogen, and stored at −80° C. until assayed. Three rats from the indicated treatment groups were perfused with paraformaldehyde for in situ hybridization.

Series [2] concerns ovariectomized rats. The series is described as follows: Serum LH concentration in ovariectomized rats, percutaneous administration. The conditions noted are these: OVX rats. The series is classed as in vivo, rat. On the procedure: as §1, §2, §3, §4
Serum LH was measured by double-antibody radioimmunoassay using rat hormones (LH-I-6 for iodination; LH-RP-2 as standard), and the rabbit antisera anti-r-LH-S-8, generously supplied by the National Pituitary Program, Baltimore, USA.
(§5) Radioimmunoassay data were analyzed using a program based on model II of Rodbard and Lewald (Rodbard, 1974). Plasma steroid levels are shown as the means±SEM of duplicate determinations of individual samples. In situ hybridization data were obtained as follows: for each prostatic tissue section, 20 randomly selected areas measuring 0.25 mm^2 (excluding acinar lumen) were analyzed using an Image Research Analysis System (Amersham, Arlington Heights, Ill.) and the mean optical density value for each section was calculated. Data are shown as the means±SEM of 20 readings from 6-8 prostatic sections originating from ventral 3 prostates. Statistical significance was measured according to the multiple range test of Duncan-Kramer (Kramer, 1956).

Series [3] deals with orchiectomized rats. Kind of series: Ventral prostate and seminal vesicle weight in orchiectomized rats, percutaneous administration. Format: in vivo, rat. On the procedure: (§6) Intact animals are used as additional controls.
as §6, §2, §3, §4

In series [4] the test system is human mammary tumor ZR-75-1 cells. The note with it: concentrations within range of plasma levels in adult women; cited from earlier work.
A further series relates to MCF-7 cells. The note with it: cited from earlier work.
Series [5] deals with orchiectomized rats. Kind of series: Prostate and seminal vesicle weight in orchiectomized rats, subcutaneous administration. The series is classed as in vivo, rat. The note with it: ORCH rats; for ED50 of maximal effect on prostate weight: half of each compound's own maximal effect. How it is done: as §6, §6, §2, §3, §4
The nature of series [6]: Serum steroid concentrations (DHEA, 5-DIOL, 4-dione, testosterone, DHT) in ovariectomized rats, percutaneous administration. The conditions noted are these: for serum levels of 5-DIOL, 5-DIOL versus DHEA: higher doses; for concentration at 12 h: female, Sprague-Dawley, rat, in vivo. On the procedure:
as §1, §1, §1
Intact animals are used as additional controls. The compounds were dissolved in 50% ethanol-50% propylene glycol and were administered in 0.1 ml on the dorsal skin in area (2 cm×2 cm).
as §1, §2, §3, §4
Steroid extraction, Ethanol (5 ml) was added to 1 ml serum and centrifugation at 2000×g was preformed for 15 min. The resulting pellet was further extracted with 2 ml ethanol and, after a second centrifugation at 2000×g for 15 min, the two supernatants were combined. The suspension was recentrifuged as described above and the supernatant was decanted and combined with the previously obtained ethanol extracts. The organic solvent was then evaporated under nitrogen and the residue was dissolved in 1 ml water: methanol (95:5, v/v). The C-18 columns (Bound-Elut, Amersham, Bucks, U.K.) were conditioned by passing consecutively 10 ml methanol, 10 ml water and 10 ml methanol/water (5:95, v/v). The extracts solubilized in water:methanol (95:5, v/v) were then deposited on the C-18 columns. After washing the columns with 2 ml water:methanol (95:5, v/v) and 5 ml methanol:water (50:50, v/v), 5 ml methanol:water (85:15, v/v) were added to eluate the non-conjugated steroids.
Chromatography on Sephadex LH-20 columns (Pharmacia, Uppsala, Sweden) was performed as previously described (Bélanger et al., 1988). In brief, steroids were solubilized in 1 ml isooctane/toluene/methanol (90:5:5, v:v:v) and deposited on the LH-20 columns. Fractions were collected and, after evaporation of the organic solvent, the concentration of the various steroids was determined by radioimmunoassay as previously described (Bélanger et al., 1980; Bélanger et al., 1988; Bélanger et al., 1990)
Radioimmunoassay data were analyzed using a program based on model II of Rodbard and Lewald (Rodbard, 1974). Plasma steroid levels are shown as the means±SEM of duplicate determinations of individual samples.

In series [7] the test system is ovariectomized rats. The series is described as follows: Uterine weight in ovariectomized rats, subcutaneous administration twice daily for 7 days. The series is classed as in vivo, rat. The conditions noted are these: for dose giving half-maximal stimulation of uterine weight: OVX rats. On the procedure: as §6, §2, §3, §4
The test system of series [8] is mRNAs encoding the C1 and C3 components of prostatic binding protein. The series is described as follows: PBP-C1 and PBP-C3 mRNA in the ventral prostate of orchiectomized rats, percutaneous administration. Format: in vivo, rat. The conditions noted are these: ORCH rats, depending on dosage. On the procedure: as §6, §6, §2
The animals were randomly divided into the indicated groups (8 and 10 rats per group for subcutaneous and topical administration, respectively). […]
as §5, with “Plasma steroid levels are shown as the means±SEM of duplicate determinations of individual samples.” left out

Molecules are shown by their SMILES. Entries after “also recorded” stand apart in the source; their conditions may differ.

Consider `C[C@]12CC[C@H]3[C@@H](CC=C4C[C@@H](O)CC[C@@]43C)[C@@H]1CC[C@@H]2O` [5-DIOL, androst-5-ene-3β,17β-diol], for which, in the series with ovariectomized rats [1] (10 mg and 30 mg doses), the “effect on uterine weight” value was “comparable stimulation”. Besides, the “maximal reversal of the inhibitory effect of ovariectomy on uterine weight” value in the series with ovariectomized rats [1] was found to be 52%. Besides, the “effect on uterine weight” value with ovariectomized rats [1] (1 and 3 mg doses) is “no significant effect”. Moreover, in the series with ovariectomized rats [2] (10 mg dose), the “serum LH” value worked out at 0.86 ± 0.17 ng/mL. For the same compound, the “inhibition of serum LH below the value in intact control animals” value (shortened to “inhibition of serum LH below the value”) in the series on ovariectomized rats [2] (30 mg dose) is “approximately 35%”. The “inhibition of serum LH below the value” value in the series with ovariectomized rats [2] (100 mg dose) was ~70%. In the series with orchiectomized rats [3] (15 mg dose, percutaneous), the “reversal of the effect of castration on ventral prostate weight” value was determined as 50%. Further, in series [4], the cell proliferation result is on record as “enhances cell proliferation” and the progesterone receptor levels entry is on record as “enhances”. For the same compound, the “estrogen-dependent synthesis of the 52 kDa glycoprotein” value with MCF-7 cells was “increases”. In the series on orchiectomized rats [5], the “ED50, dose giving half-maximal reversal of the effect of orchiectomy on prostate weight” value is listed as 1 mg; the “half-maximal reversal of the effect of orchiectomy on seminal vesicle weight (dose)” value is ~1.2 mg; the “ED50 of maximal effect on prostate weight” value was determined as 1.2 mg. Also, the “serum DHEA level” value in series [6] (3, 10, 30 and 100 mg dosages, percutaneous, OVX rats) is “relatively constant but low level”. Also, the “levels of serum DHT” value in series [6] (across the dosage range, percutaneous, OVX rats) was “substantially constant and relatively low”. Also, the “serum levels of 5-DIOL, 5-DIOL versus DHEA” value in [6] (percutaneous, OVX rats) is recorded as “no significant difference”. Besides, in [6] (lower doses, 1 and 3 mg, percutaneous, OVX rats), the “serum levels of 5-DIOL compared with the other steroid” value is “higher levels”. In addition, the “reversal of the effect of 1-week ovariectomy on uterine weight” value with ovariectomized rats [7] (0.3 mg) came to 90%. The “dose giving half-maximal stimulation of uterine weight” value in the series on ovariectomized rats [7] is given as 0.5 mg.

For `C[C@]12CC[C@H](O)CC1=CC[C@@H]1[C@@H]2CC[C@]2(C)C(=O)CC[C@@H]12` [DHEA, dehydroepiandrosterone], the “effect on uterine weight” value was “comparable stimulation” in the series on ovariectomized rats [1] (10 mg and 30 mg doses); “no significant effect” in the series with ovariectomized rats [1] (1 and 3 mg doses); “no significant effect” in the series on ovariectomized rats [7] (0.3 mg). In addition, in the series with ovariectomized rats [1], the “maximal reversal of the inhibitory effect of ovariectomy on uterine weight” value was 42%. The “inhibitory effect on serum LH” value with ovariectomized rats [2] (10 mg dose) is reported as 61%. For the same compound, the “inhibition of serum LH below the value” value in the series on ovariectomized rats [2] (30 mg dose) is “approximately 35%”; with ovariectomized rats [2] (100 mg dose), ~70%. Also, the “reversal of the inhibitory effect of orchiectomy on ventral prostate weight” value with orchiectomized rats [3] (10 mg dose, percutaneous) is on record as “about 75%”. The “androgenic activity of DHEA relative to 5-DIOL where equivalent estrogenic effects are provided” value in the series on orchiectomized rats [3] (percutaneous administration) is recorded as “two to three times more androgenic activity”. The “potency of DHEA relative to 5-DIOL in increasing seminal vesicle weight” value in the series on orchiectomized rats [3] (percutaneous, ORCH rats) is 1 fold. Also, in the series on orchiectomized rats [5], the “ED50, dose giving half-maximal reversal of the effect of orchiectomy on prostate weight” value stood at 1 mg. The “half-maximal reversal of the effect of orchiectomy on seminal vesicle weight (dose)” value in the series on orchiectomized rats [5] is reported as ~2.5 mg. Further, the “ED50 of maximal effect on prostate weight” value in the series on orchiectomized rats [5] stood at 2.5 mg. Moreover, the concentration at 12 h in series [6] (3 mg) was determined as 1.74 ± 0.3 nM; in series [6] (30 mg) it was 12.9 ± 3.69 nM; in series [6] (100 mg) it was 39.2 ± 6.5 nM. For the same compound, in [6] (percutaneous, OVX rats), the “serum levels of 5-DIOL, 5-DIOL versus DHEA” value is “no significant difference”. In the series with ovariectomized rats [7], the “dose giving half-maximal stimulation of uterine weight” value is ~2.5 mg. Also, the “stimulation of PBP-C1 and PBP-C3 mRNA levels by DHEA relative to 5-DIOL” value in series [8] is on record as “two to five times the effect; also recorded: two to five times more potent”.

Values taken from US6995150B2, “Pharmaceutical compositions and uses for androst-5-ene-3β, 17β-diol” (Endorecherche, Inc., priority 1998, dated 2006).
